Assay results published in article PMC9967152 (International Journal of Molecular Sciences, 2023).
Entries after “also recorded” stand apart in the source; their conditions may differ. Values belong to the compound of their own block, whether it stands above or below them. Where a SMILES comes first, the peptide text is derived from it. [ ]: non-standard residue; d: D form. The star is where a group is joined. Daunorubicin(13-NOCH2CO) = COc1cccc2c1C(=O)c1c(O)c3c(c(O)c1C2=O)C[C@@](O)(C(C)=NOCC(=O)*)C[C@@H]3O[C@H]1C[C@H](N)[C@H](O)[C@H](C)O1; Sta = CC(C)C[C@H](N)[C@@H](O)CC(=O)O; Nle = CCCC[C@H](N)C(=O)O; Aib = CC(C)(N)C(=O)O; βAla = NCCC(=O)O

Tests used:
[1] = test system: PC-3 human prostate adenocarcinoma cells; experiment: MTT assay, in vitro cytostatic effect; assay type: cell-based; details: 24 h treatment at 3.125–25 µM, then cultured up to 72 h, mean ± SD, n = 2 independent experiments with four parallels
Procedure: (§1) Cells were distributed into 96-well tissue culture plates with an initial cell number of 5.0 × 10^3 per well. After 24 h incubation at 37 °C, the cells were treated with the compounds in 200 µL final volume containing 1.0 v/v% DMSO and 10% H2O. […] After incubation, the cells were washed twice with a serum-free medium. To determine the in vitro cytostatic effect, the cells were further cultured up to 72 h in a 10% serum-containing medium. A solution of 3-(4,5-dimethylthiazol-2-yl)-2,5-diphenyltetrazolium bromide and MTT-solution, (45 µL, 2 mg/mL, final concentration: […]) were added to each well. The respiratory chain [67] and other electron transport systems reduce MTT, and thereby form non-water-soluble violet formazan crystals within the cell. […] After 3 h of incubation, the cells were centrifuged for 5 min at 1000 g and the supernatant was removed. The obtained formazan crystals were dissolved in DMSO (100 μL) and the optical density (OD) of the samples was measured at λ = 540 and 620 nm, respectively, using ELISA Reader (iEMS Reader, Labsystems, Finland). OD620 values were subtracted from OD540 values. The percentage of cytostasis was calculated by using the following equation:Cytostatic effect (%) = [1 − (ODtreated/ODcontrol)] × 100(1)
(§2) Values of ODtreated and ODcontrol correspond to the optical densities of the treated and the control cells, respectively. In each case, two independent experiments were carried out with four parallel measurements. The 50% inhibitory concentration (IC50) values were determined from the dose–response curves. The curves were defined using Microcal™ Origin 2018 software: cytostasis was plotted as a function of concentration, fitted to a sigmoidal curve, and based on this curve, the half-maximal inhibitory concentration (IC50) value was determined. IC50 represents the concentration of a compound that is required for 50% inhibition in vitro and is expressed in micromolar units.

[2] = test system: MDA-MB-453 human metastatic epithelial breast carcinoma cells; experiment: MTT assay, in vitro cytostatic effect; assay type: cell-based; details: 24 h treatment at 3.125–25 µM, then cultured up to 72 h, mean ± SD, n = 2 independent experiments with four parallels
Procedure: as §1, §2

[3] = test system: MDA-MB-231 human breast adenocarcinoma cells; experiment: MTT assay, in vitro cytostatic effect; assay type: cell-based; details: 24 h treatment at 3.125–25 µM, then cultured up to 72 h, mean ± SD, n = 2 independent experiments with four parallels
Procedure: as §1, §2

[4] = test system: PC-3 human prostatic adenocarcinoma xenograft in NOD-SCID mice; experiment: In vivo tumour growth inhibition, subcutaneous PC-3 xenograft; set-up: species or system mouse; details: 10 mg/kg on Dau content i.p. every 5th day, n = 8
Procedure: The testing of the antitumour conjugates was carried out in a murine xenograft model. It was established by inoculating subcutaneously 100 µL of cell suspension of PC-3 prostate cancer cells with a concentration of 2 × 10^7 cells/mL.
Once the tumour volume reached 60 mm^3, mice were randomised and assigned to different groups for each treatment, respectively 0.9% saline as control, free daunorubicin, L5, and L6. Each group consisted of eight mice. Peptide–drug conjugates were injected intraperitoneally every 5th day, five times in total (daunorubicin dosage of 10 mg/kg for each treatment). In the case of free daunorubicin, two treatments were administered at the same time points as the first two treatments with conjugates, with a dosage of 1 mg/kg, the maximum tolerated dose (MTD). Weight and tumour size of mice were monitored throughout the whole experiment, two times per week. On day 33, mice were euthanized, and primary tumour, heart, lung, liver and spleen were harvested and stored in 4% formalin (Molar Chemicals, Halásztelek, Hungary). After 2–3 days of incubation in formalin, tissue samples were examined macroscopically. Organs and primary tumours from the different treatment groups were weighed and inspected under a stereomicroscope to see any occurrent changes in morphology compared to the controls.

[5] = Stability in mouse plasma; assay type: in vitro ADME; details: 37 °C, HPLC-MS; for Time after which release of the toxic metabolite Dau=Aoa-Leu-OH starts: 10 µM, for L5 and L6 in a considerably low amount; for remaining at 24 h, 10 μM: 600 rpm, n = 3, read-out: Intact conjugate after one day (24 h)
Procedure: Due to their low IC50 values and internalisation on the tested cell lines, conjugates L1, L5 and L6 were chosen for investigation of their stability in mouse plasma, as potential candidates for in vivo studies. They were incubated at a concentration of 10 µM, with mouse plasma for 24 h at 37 °C. Samples were collected at 0 h, 30 min, 1 h, 2 h, 4 h, 8 h and 24 h and analysed by HPLC-MS. […] Furthermore, after 2 h, L1 starts to release the toxic metabolite Dau=Aoa-Leu-OH, whereas this happens only after 24 h for L5 and L6, in a considerably low amount (see Supplementary Materials, Figures S18–S20).
The conjugates were dissolved in ddH2O containing 10% DMSO (stock solution: 100 μM) and diluted with mouse plasma to a final concentration of 10 μM. The mixture was incubated and stirred at 37 °C, 600 rpm, and 30 µL aliquots were collected after 0 min, 0.5, 1, 2, 4, 8 and 24 h, in triplicates. Then, to each plasma sample, 90 µL of 0.1% formic acid containing MeCN was added, and the samples were frozen at −25 °C for ≥30 min to aid protein precipitation. Large plasma proteins were removed by centrifugation (15 min, 5000× g, 4 °C). Aliquots of 50 µL supernatant were diluted with an equal volume of ddH2O + 0.1% formic acid and analysed by LC–MS. Control measurements were performed in the same manner (10 μM bioconjugate in 100% ddH2O).

[6] = Stability in incomplete (serum-free) DMEM; assay type: in vitro ADME; details: 25 µM, 37 °C, 600 rpm, LC–MS, n = 2
Procedure: The conjugates were incubated in incomplete DMEM for 3 h (similarly to the internalisation studies) or in 2.5% FBS containing DMEM for 24 h (conditions for the MTT assay). […] No significant loss of L1 and L5 (<20%) or L6 (<30%) was observed after 3 h (see Supplementary Materials, Figure S17).
DMSO stock solutions of the conjugates (2.5 mM) were diluted in DMEM free from or containing 2.5% FBS, to a final concentration of 25 μM. The mixture was incubated and stirred at 37 °C, 600 rpm, and 30 µL aliquots were collected after 0 min, 0.5, 1, 2, 4, 8 and 24 h, in duplicates. Then, to each sample, 90 µL of 0.1% formic acid containing MeCN was added and the samples were frozen at −25 °C for ≥30 min to aid protein precipitation. Large FBS components were removed by centrifugation (15 min, 5000 g, 4 °C). Aliquots of 50 µL supernatant were diluted with an equal volume of ddH2O + 0.1% formic acid and analysed by LC–MS. Control measurements were performed in the same manner (25 μM bioconjugate in 100% ddH2O).

[7] = test system: healthy NOD-SCID mice; experiment: In vivo chronic toxicity study in healthy mice; set-up: species or system mouse; details: 20 mg/kg calculated on Dau content, every 5th day, four treatments, n = 3
Procedure: Based on the stability assay performed in murine plasma, we decided to investigate L5 and L6 in vivo. To determine the dosage for the tumour growth inhibition experiment, we performed a chronic toxicity study using healthy mice. PDCs were administered every 5th day in three different doses calculated on the Dau content: 5 mg/kg, 10 mg/kg, and 20 mg/kg (Figure 4A). […] When 10 mg/kg drug was applied, the fitness of mice was not affected more than that of mice that received 5 mg/kg.
The toxicity experiments were done in healthy NOD-SCID mice. Treatments were administered every 5th day. Three different concentrations were tested, 5 mg/kg, 10 mg/kg and 20 mg/kg, respectively. Each group consisted of three mice. Mouse weight was monitored five times per week.

[8] = incomplete DMEM; details: 37 °C, up to 3 h
[9] = mouse plasma; details: 37 °C, up to 24 h
[10] = rat liver lysosomal homogenate; details: male Wistar rats, 37 °C, up to 72 h

Compound: CCCC[C@H](NC(=O)C(C)(C)NC(=O)[C@H](Cc1c[nH]cn1)NC(=O)CCNC(=O)[C@@H](NC(=O)[C@H](C)NC(=O)[C@H](Cc1c[nH]c2ccccc12)NC(=O)[C@H](CCC(N)=O)NC(=O)[C@@H](Cc1ccccc1)NC(=O)[C@H](Cc1ccc(O)cc1)NC(=O)[C@H](CCCNC(=N)N)NC(=O)[C@H](CCCNC(=N)N)NC(=O)[C@H](CC(C)C)NC(=O)CON=C(C)[C@]1(O)Cc2c(O)c3c(c(O)c2[C@@H](O[C@H]2C[C@H](N)[C@H](O)[C@H](C)O2)C1)C(=O)c1c(OC)cccc1C3=O)C(C)C)C(N)=O ({Daunorubicin(13-NOCH2CO)}-LRRY[dF]QWAV[βAla]H[Aib][Nle]-NH2)
- time to release of active metabolite Dau=Aoa-Leu-OH: < 30 min

Compound: CC(=O)N[C@H](Cc1ccccc1)C(=O)N[C@@H](CCC(N)=O)C(=O)N[C@@H](Cc1c[nH]c2ccccc12)C(=O)N[C@@H](C)C(=O)N[C@H](C(=O)NCC(=O)N[C@@H](Cc1c[nH]cn1)C(=O)N[C@@H](CC(C)C)[C@@H](O)CC(=O)N[C@@H](CC(C)C)C(N)=O)C(C)C [FP1]
- IC50 [1]: > 100 µM
- IC50 [2]: > 100 µM
- IC50 [3]: > 100 µM

Compound: CCCC[C@H](NC(=O)C[C@H](O)[C@H](CC(C)C)NC(=O)[C@H](Cc1c[nH]cn1)NC(=O)CCNC(=O)[C@@H](NC(=O)[C@H](C)NC(=O)[C@H](Cc1c[nH]c2ccccc12)NC(=O)[C@H](CCC(N)=O)NC(=O)[C@@H](Cc1ccccc1)NC(C)=O)C(C)C)C(N)=O [FP2] (Ac-[dF]QWAV[βAla]H[Sta][Nle]-NH2)
- IC50 [1]: > 100 µM
- IC50 [2]: > 100 µM
- IC50 [3]: > 100 µM

Compound: COc1cccc2c1C(=O)c1c(O)c3c(c(O)c1C2=O)C[C@@](O)(C(C)=NOCC(=O)N[C@@H](CC(C)C)C(=O)N[C@@H](CCCNC(=N)N)C(=O)N[C@@H](CCCNC(=N)N)C(=O)N[C@@H](Cc1ccc(O)cc1)C(=O)N[C@H](Cc1ccccc1)C(=O)N[C@@H](CCC(N)=O)C(=O)N[C@@H](Cc1c[nH]c2ccccc12)C(=O)N[C@@H](C)C(=O)N[C@H](C(=O)NCC(=O)N[C@@H](Cc1c[nH]cn1)C(=O)N[C@@H](CC(C)C)[C@@H](O)CC(=O)N[C@@H](CC(C)C)C(N)=O)C(C)C)C[C@@H]3O[C@H]1C[C@H](N)[C@H](O)[C@H](C)O1 [L5, (Dau=Aoa)-LRRY-BBN[D-Phe6, Sta13, Leu14]] ({Daunorubicin(13-NOCH2CO)}-LRRY[dF]QWAVGH[Sta]L-NH2)
- Toxicity during the tumour growth inhibition experiment [4]: lower toxicity compared to free daunorubicin
- time to release of active metabolite Dau=Aoa-Leu-OH: < 30 min
- Time after which release of the toxic metabolite Dau=Aoa-Leu-OH starts [5]: 24 h
- remaining at 24 h, 10 μM [5]: > 80%
- Loss of conjugate after 3 h [6]: < 20%
- Decrease in mouse weight [7]: 10–15%

Compound: CCCC[C@H](NC(=O)C[C@H](O)[C@H](CC(C)C)NC(=O)[C@H](Cc1c[nH]cn1)NC(=O)CCNC(=O)[C@@H](NC(=O)[C@H](C)NC(=O)[C@H](Cc1c[nH]c2ccccc12)NC(=O)[C@H](CCC(N)=O)NC(=O)[C@@H](Cc1ccccc1)NC(=O)[C@H](Cc1ccc(O)cc1)NC(=O)[C@H](CCCNC(=N)N)NC(=O)[C@H](CCCNC(=N)N)NC(=O)[C@H](CC(C)C)NC(=O)CON=C(C)[C@]1(O)Cc2c(O)c3c(c(O)c2[C@@H](O[C@H]2C[C@H](N)[C@H](O)[C@H](C)O2)C1)C(=O)c1c(OC)cccc1C3=O)C(C)C)C(N)=O [L6, (Dau=Aoa)-LRRY-BBN[D-Phe6, β-Ala11, Sta13, Nle14]] ({Daunorubicin(13-NOCH2CO)}-LRRY[dF]QWAV[βAla]H[Sta][Nle]-NH2)
- Toxicity during the tumour growth inhibition experiment [4]: lower toxicity compared to free daunorubicin
- Time after which release of the toxic metabolite Dau=Aoa-Leu-OH starts [5]: 24 h
- remaining at 24 h, 10 μM [5]: > 80%
- Loss of conjugate after 3 h [6]: < 30%
- Decrease in mouse weight [7]: 10–15%

- fragment found [9]: Dau=Aoa-Leu-OH (M1), minor, 2 h
- cleaved bond [10]: Leu-Arg, 15 min
Compound: Dau=Aoa-LRRY-QWAVGHL-Nle
- not cleaved [8]: highly stable for 1.5 h; no significant loss (<20%) after 3 h
- fragment found [10]: Dau=Aoa-LR-OH; also recorded: Dau=Aoa-LRR-OH

- cleaved bond [10]: Leu-Arg, 15 min
Compound: Dau=Aoa-LRRY-fQWAV-β-Ala-H-Aib-Nle
- fragment found [10]: Dau=Aoa-LR-OH; also recorded: H2N-RY-fQWAV-β-Ala-H-Aib-Nle-NH2; also recorded: H2N-Y-fQWAV-β-Ala-H-Aib-Nle-NH2; also recorded: H2N-RY-fQW-OH

- fragment found [9]: Dau=Aoa-Leu-OH (M1), minor, 24 h
- cleaved bond [10]: Leu-Arg, 15 min
Compound: Dau=Aoa-LRRY-fQWAV-β-Ala-H-Sta-Nle
- not cleaved [8]: highly stable for 1.5 h; no significant loss (<30%) after 3 h
- fragment found [10]: Dau=Aoa-LR-OH; also recorded: H2N-RY-fQWAV-βAla-H-Sta-Nle-NH2; also recorded: H2N-Y-fQWAV-βAla-H-Sta-Nle-NH2; also recorded: H2N-RY-fQW-OH

- fragment found [9]: Dau=Aoa-Leu-OH (M1), minor, 24 h
- cleaved bond [10]: Leu-Arg, 15 min
Compound: Dau=Aoa-LRRY-fQWAVGH-Sta-L
- not cleaved [8]: highly stable for 1.5 h; no significant loss (<20%) after 3 h
- fragment found [10]: Dau=Aoa-LR-OH; also recorded: H2N-RY-fQWAVGH-Sta-L-NH2; also recorded: H2N-VGH-Sta-L-NH2; also recorded: H2N-GH-Sta-L-NH2; also recorded: H2N-RY-fQW-OH; also recorded: H2N-RYfQ-OH
